# What was measured:
# Type in all cases: in vivo, mouse
# [1] = test system: estrogen synthesis; test: Serum estradiol levels of ATD-treated gestating females by RIA assay; details: heterozygous gestating females, daily s.c. 4 mg ATD from day 13.5 of gestation; 10 pg/ml is the RIA detection limit
# Protocol: (§1) Females heterozygous for the Afp tm2Ibmm allele (CD1 strain, 8th backcross level) were mated with Afp tm2Ibmm homozygous males and housed under the conditions described above. They then received a daily subcutaneous injection in the neck of 4 mg of the aromatase inhibitor ATD (1, 4, 6-androstatrien-3,17-dione, Steraloids, Newport, R.I.) dissolved in propylene glycol, from the 13.5th day of gestation (day 0.5 is defined as the day of vaginal plug detection) until the end of gestation. Controls were injected with propylene glycol only. Pups were born naturally or retrieved by Caesarian operation on embryonic day 20.5. Blood from the mothers was taken from the hart and estradiol levels were measured by classical RIA assay. Fertility of female pups was tested at the age of 2-3 months. In parallel, sisters of the female pups tested were dissected at the age of 3 months and total RNA was extracted from the pituitary and the hypothalamus as described above. cDNA was obtained using the TaqMan Reverse Transcription Reagents kit (Applied Biosystems) and real time PCR was performed on the 7300 Real Time PCR System (Applied Biosystems) with the Platinum Quantitative PCR SuperMix-UDG kit (Invitrogen) and the TaqMan Gene Expression Assays (Applied Biosystems) for pituitary genes except for Egr1. […]
# [2] = test system: AFP KO females; test: Fertility of AFP KO female pups after prenatal ATD treatment
# Protocol: as §1
# [3] = test system: Ucp1, Isp2, Egr1, Gnrhr expression in the pituitary; test: Real time PCR gene expression in pituitary of prenatally ATD-treated AFP KO females; details: prenatal ATD-treated AFP KO females (n=7)
# Protocol: as §1
# [4] = test system: Gnrh2 gene expression in the hypothalamus; test: Real time PCR Gnrh2 gene expression in hypothalamus of prenatally ATD-treated AFP KO females; details: prenatal ATD-treated AFP KO mice (n=7), normalized to Hprt
# Protocol: as §1
compound,measurement,setting,value
"C[C@]12C=CC(=O)C=C1C=C[C@@H]1[C@@H]2CC[C@]2(C)C(=O)CC[C@@H]12 [ATD, 1,4,6-androstatrien-3,17-dione]",Serum estradiol levels,[1],< 10 pg/mL
same,Fertility of female pups,"[2]; AFP KO and heterozygous pups from ATD-injected mothers, tested at 2-3 months, 8 KO and 17 heterozygous pups tested",fertile
same,Litter size,[2]; litters born to prenatally ATD-treated AFP KO and heterozygous females,normal size
same,Pituitary gene expression levels vs untreated KO females,"[3]; normalized to Hprt, p=0.044",statistically different from those of the untreated KO females
same,Pituitary gene expression levels vs heterozygous untreated females,"[3]; p=0.508, except Isp2 (p=0.014)","not statistically different from those of the heterozygous, untreated females"
same,Gnrh2 expression level in hypothalamus,[4],not increased
